Data as given in publication PMC9145196, “The Antileukemic and Anti-Prostatic Effect of Aeroplysinin-1 Is Mediated through ROS-Induced Apoptosis via NOX Activation and Inhibition of HIF-1a Activity” (Life, 2022).

How the values were obtained:
Hsp90 = molecular target: T1, Hsp90 (Homo sapiens, UniProt P07900); assay: protein thermal shift assay (Sypro Orange), Tm increase at […] Apl-1; format: binding
T1 construct: gene HSP90AA1; HSP90 recombinant protein

topo IIα = molecular target: T2, topo IIα (Homo sapiens, UniProt P11388); assay: cell-free topo II relaxation assay of supercoiled pHOT1 plasmid DNA; format: biochemical
T2 construct: gene TOP2A
T2 sequence (P11388 whole entry): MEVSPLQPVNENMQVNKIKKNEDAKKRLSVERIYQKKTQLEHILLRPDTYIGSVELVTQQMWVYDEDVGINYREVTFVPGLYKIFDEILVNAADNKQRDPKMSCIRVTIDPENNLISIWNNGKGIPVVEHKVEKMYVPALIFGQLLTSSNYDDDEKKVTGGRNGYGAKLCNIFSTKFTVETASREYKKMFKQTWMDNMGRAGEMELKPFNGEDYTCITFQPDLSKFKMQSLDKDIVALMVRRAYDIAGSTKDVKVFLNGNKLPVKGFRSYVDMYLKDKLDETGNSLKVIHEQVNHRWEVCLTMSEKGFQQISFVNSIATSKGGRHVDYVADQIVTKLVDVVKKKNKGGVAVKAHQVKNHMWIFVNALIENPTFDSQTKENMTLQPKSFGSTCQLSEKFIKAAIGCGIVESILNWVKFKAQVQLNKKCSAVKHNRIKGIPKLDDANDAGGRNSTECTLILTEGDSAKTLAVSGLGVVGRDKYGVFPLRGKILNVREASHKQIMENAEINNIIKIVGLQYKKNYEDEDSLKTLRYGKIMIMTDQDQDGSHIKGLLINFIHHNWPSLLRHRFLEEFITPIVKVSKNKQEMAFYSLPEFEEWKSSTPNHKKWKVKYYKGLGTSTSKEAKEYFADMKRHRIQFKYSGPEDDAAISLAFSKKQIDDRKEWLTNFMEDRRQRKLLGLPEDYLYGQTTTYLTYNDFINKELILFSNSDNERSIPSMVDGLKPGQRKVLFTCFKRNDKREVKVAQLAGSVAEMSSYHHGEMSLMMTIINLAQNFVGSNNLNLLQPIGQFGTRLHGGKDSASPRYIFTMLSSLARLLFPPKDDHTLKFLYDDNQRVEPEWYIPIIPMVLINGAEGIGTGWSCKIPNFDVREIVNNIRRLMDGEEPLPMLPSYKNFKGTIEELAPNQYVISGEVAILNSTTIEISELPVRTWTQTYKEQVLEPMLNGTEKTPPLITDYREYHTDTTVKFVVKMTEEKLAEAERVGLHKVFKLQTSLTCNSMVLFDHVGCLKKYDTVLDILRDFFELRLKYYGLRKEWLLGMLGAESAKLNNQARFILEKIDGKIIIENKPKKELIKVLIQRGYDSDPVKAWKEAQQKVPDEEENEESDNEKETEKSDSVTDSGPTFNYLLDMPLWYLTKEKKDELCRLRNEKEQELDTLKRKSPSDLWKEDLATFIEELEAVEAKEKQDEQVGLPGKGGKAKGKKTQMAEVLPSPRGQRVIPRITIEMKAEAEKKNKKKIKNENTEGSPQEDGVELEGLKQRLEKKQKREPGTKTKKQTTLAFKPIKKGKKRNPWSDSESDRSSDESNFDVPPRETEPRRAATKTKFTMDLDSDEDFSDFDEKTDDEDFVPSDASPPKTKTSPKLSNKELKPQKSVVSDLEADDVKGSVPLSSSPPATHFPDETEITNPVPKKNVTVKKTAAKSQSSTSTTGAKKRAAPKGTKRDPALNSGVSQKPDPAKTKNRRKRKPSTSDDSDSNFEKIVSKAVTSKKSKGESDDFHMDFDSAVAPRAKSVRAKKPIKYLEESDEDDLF

Work on COC1=C(Br)[C@H](O)[C@](O)(CC#N)C=C1Br [Apl-1, aeroplysinin-1] yielded a ΔTm at 2950 µM (Hsp90) of 46.4 ± 7.4 °C and an IC50 (topo IIα) of 1370 nM.
